Assay results: patent EP2345639A1, “Cyclic hydroxylamine derivatives, their preparation and use as antioxidants” (ABIOGEN PHARMA S.p.A., priority 2009, dated 2011)
Read-outs that look alike come from different tables or passages of the source.

How the values were obtained:
[1] = test system: doxorubicin-induced cerebral oxidative stress in mice; assay: In vivo assay of cerebral oxidative stress induced in mice by doxorubicin (model and oxidized animals); conditions: for inhibition in vivo at 50 mg/kg / change in vivo at 50 mg/kg: Mus musculus; for inhibition in vivo at 50 mg/kg: overall, read-out: inhibition of the doxorubicin effect
Method: The assay was carried out on compounds (1)-(5) and (7)-(11) and on edaravone (E) as comparative compound.
10 mice were used for each treatment group. For each compound 50 mg/kg were administered intraperitoneally (IP) for three consecutive days (day 0, 1 and 2); half the animals (5) also received IP 16.7 mg/kg of doxorubicin immediately after the first treatment (day 0). On the day after the last administration (day 3) the animals were killed by neck dislocation and the brains were removed, weighed and frozen in liquid nitrogen.
For the analyses of oxidative stress, 100 mg/ml of brain homogenate was prepared in HEB^(*) buffer (pH 7.4 EDTA/HEPES^(**)) containing a mixture of enzyme inhibitors (Leupeptin, Pepstatin, Aprotinin, BHA).
The evaluation parameters were: • BrW/BWi: ratio between final brain weight and initial body weight (day 0); • Prot. Hmg: total proteins in the homogenate (BCA method, i.e. bicinchoninic acid); • Prot. Ox: oxidized proteins in the Hmg by means of a colorimetric method using dinitrophenylhydrazone (DNPH); • GSH: reduced glutathione in the supernatant (sn) of the Hmg, obtained after precipitation with metaphosphoric acid (MPA), by means of a colorimetric method using dithiodinitrobenzene (DTNB); • CAT: catalase in the Hmg by a colorimetric method using potassium dichromate; • SOD: superoxide dismutase by a colorimetric method using SOD Reagent (xanthine, EDTA, nitroblue tetrazole, Na2CO3, BSA, i.e. bovine serum albumin); • GST: glutathione S-transferase in the supernatant by a colorimetric method using chlorodinitrobenzene (CDNB) and GSH; and • GPx: glutathione peroxidase in the supernatant after addition of GSH and t-BuOOH, heating and precipitation with MPA; followed by GSH method with DTNB. The assay was performed on the compounds (1)-(5) and (7)-(11) and on edaravone (E), as comparative compound.
The mean effect (n=5 experiments) of doxorubicin (D), i.e. "oxidized" animal, relative to the vehicle (V), the vehicle representing the healthy animal.
All the parameters, with the exclusion of Brain/BWi and Prot. Hmg, were normalized for total Hmg proteins. The D value standard deviations and the % incidence relative to V are given in italics.
The effect of the tested compounds on the "oxidized" animals was given as % inhibition relative to the percentage change due to doxorubicin alone. The effect of the compounds on the oxidized animals can be expressed both as a function of the values of the vehicle (healthy, vehicle only) and as a function of the value of its own (healthy, compound only): • Vehicle: percentage [(Compound+D)/V]x100/[(V+D)/V]x100 • Its own: percentage [(Compound+D)/Compound]x100/[(V+D)/V]x100
Again in this case, the mean % effect relative to doxorubicin alone could be given for all the parameters simultaneously, as an approximate index of effectiveness on the cerebral oxidative state of the animal.

[2] = Brain-to-plasma concentration ratio in mice; type: in vivo, Female CD-1 mice; conditions: female, CD-1, mouse, ip, 25 mg/kg intraperitoneal, area under the curve of brain and plasma concentrations 0 to 60 minutes, read-out: B/P ratio
Method: The ability of the compounds of the invention to penetrate the brain was investigated by measuring their brain/plasma (B/P) ratio in mice following intraperitoneal administration.
Female CD-1 mice were used (n=3 for each time period) and received the compounds of the invention by intraperitoneal administration, in 25 mg/kg doses in a 0.5% NaHCO3 buffer (pH 8.3). At predefined intervals following said administration, i.e. 5, 15, 30 and 60 minutes, the mice were killed and both plasma and total brain tissue were collected.
Specifically, after anaesthesia with ether, the animals were bled by blood withdrawal from the abdominal aorta then immediately decapitated. The blood samples were collected into plasma separator tubes containing Li-Heparin as anticoagulant and centrifuged. The resulting plasma was then stored at -20 °C. The brain was rapidly removed from the cranium and weighed, subsequently frozen and stored at -20 °C before treatment by homogenization and HPLC analysis.
The plasma was thawed and mixed with an equal volume of the extraction solution.
1 ml of solution was then extracted by adding 20 µl of 70% HClO4, then centrifuged at 15,500g for 5 minutes and injected into the HPLC.
Each brain was thawed and homogenized with the extraction solution to provide a final composition of 4 ml/1g of tissue by means of an Ultra-Turrax blender and sonicated for 5 minutes. After centrifugation of the homogenate at 15,500g for 5 minutes, the resulting solution was treated with HClO4, as indicated for the plasma. Specific chromatographic conditions had been developed for each analyte, the calibration curve being constructed for plasma and brain homogenate.

female CD-1 mice = assay: Acute toxicity study, intraperitoneal, single dose; conditions: in vivo, Example 23
Method: This study was carried out with the purpose of investigating the toxicity of a single dose of the listed compounds administered to ICR (CD-1) female mice. According to the current OECD guideline no.
The mice used were all female and were treated by intraperitoneal injection administration. The animals were observed individually and regularly for the first 4 hours and within 24 hours after administration, and then twice a day for the whole observation period. As soon as the animals were stabilized, observations at the weekend were undertaken once only during the day.
The evaluated parameters included the survival, body weight development, variations in skin and fur, changes in ocular, conjunctival and buccal mucous membranes, changes in activities of the respiratory, circulatory, autonomous and central nervous systems, changes in somatomotor activity and in behaviour.
Any appearance of tremors, convulsions, salivation, diarrhea, lethargy, drowsiness and coma were attentively and regularly monitored. At the end of the observation period, a post-mortem was carried out on all the animals.

[3] = ip, compared with its own vehicle
[4] = ip, oxidized mice, % inhibition relative to change due to doxorubicin alone, vs its own, read-out: Brain/BWi its own
[5] = ip, oxidized mice, % inhibition relative to change due to doxorubicin alone, vs its own, read-out: CAT/pr its own
[6] = ip, oxidized mice, % inhibition relative to change due to doxorubicin alone, vs its own, read-out: GPX/pr its own
[7] = ip, oxidized mice, % inhibition relative to change due to doxorubicin alone, vs its own, read-out: GSH/pr its own
[8] = ip, oxidized mice, % inhibition relative to change due to doxorubicin alone, vs its own, read-out: GST/pr its own
[9] = ip, oxidized mice, % inhibition relative to change due to doxorubicin alone, vs its own, read-out: Prot. Hmg its own
[10] = ip, oxidized mice, % inhibition relative to change due to doxorubicin alone, vs its own, read-out: Prot. Ox/pr its own
[11] = ip, oxidized mice, % inhibition relative to change due to doxorubicin alone, vs its own, read-out: SOD/pr its own
[12] = ip, oxidized mice, % inhibition relative to change due to doxorubicin alone, vs vehicle, read-out: Brain/BWi vehicle
[13] = ip, oxidized mice, % inhibition relative to change due to doxorubicin alone, vs vehicle, read-out: CAT/pr vehicle
[14] = ip, oxidized mice, % inhibition relative to change due to doxorubicin alone, vs vehicle, read-out: GPX/pr vehicle
[15] = ip, oxidized mice, % inhibition relative to change due to doxorubicin alone, vs vehicle, read-out: GSH/pr vehicle
[16] = ip, oxidized mice, % inhibition relative to change due to doxorubicin alone, vs vehicle, read-out: GST/pr vehicle
[17] = ip, oxidized mice, % inhibition relative to change due to doxorubicin alone, vs vehicle, read-out: Prot. Hmg vehicle
[18] = ip, oxidized mice, % inhibition relative to change due to doxorubicin alone, vs vehicle, read-out: Prot. Ox/pr vehicle
[19] = ip, oxidized mice, % inhibition relative to change due to doxorubicin alone, vs vehicle, read-out: SOD/pr vehicle
[20] = oxidized mice, 50 mg/kg IP x3 days + doxorubicin, computed as a function of its own (healthy, compound only), read-out: mean % effect relative to doxorubicin alone, all parameters (Its own)

Kp [2]	Compound	inhibition in vivo at 50 mg/kg [1, 3] [%]	change in vivo at 50 mg/kg [1, 4] [%]	change in vivo at 50 mg/kg [1, 5] [%]	change in vivo at 50 mg/kg [1, 6] [%]	change in vivo at 50 mg/kg [1, 7] [%]	change in vivo at 50 mg/kg [1, 8] [%]	change in vivo at 50 mg/kg [1, 9] [%]	change in vivo at 50 mg/kg [1, 10] [%]	change in vivo at 50 mg/kg [1, 11] [%]	change in vivo at 50 mg/kg [1, 12] [%]	change in vivo at 50 mg/kg [1, 13] [%]	change in vivo at 50 mg/kg [1, 14] [%]	change in vivo at 50 mg/kg [1, 15] [%]	change in vivo at 50 mg/kg [1, 16] [%]	change in vivo at 50 mg/kg [1, 17] [%]	change in vivo at 50 mg/kg [1, 18] [%]	change in vivo at 50 mg/kg [1, 19] [%]	change in vivo at 50 mg/kg [1, 20] [%]	further results
> 0.1	CC1=NN(c2ccccc2)C(=O)C1C1COCCN1O (stereo not drawn) [(11), 4-(4-hydroxymorpholin-3-yl)-3-methyl-1-phenyl-1H-pyrazol-5(4H)-one]	~65	-23.2	36.4	-7.1	-21.6	-2.2	-15.7	-84.3	-2.1	11.6	60.6	9.1	-16	1.1	-2.4	-69.8	18.9	-64.7	–
> 0.1	O=C1CCC(=O)C1C1COCCN1O (stereo not drawn) [(7), 2-(4-hydroxymorpholin-3-yl)-cyclopentane-1,3-dione]	~85	-85.5	-45.5	-30.3	-138	-29.7	-48.2	20.3	-23.8	21.7	2.3	-23.2	-60.8	-22	-14.5	-22.1	-25.9	-85.5	–

Compound	Kp [2]	inhibition in vivo at 50 mg/kg [1, 3] [%]	change in vivo at 50 mg/kg [1, 4] [%]	change in vivo at 50 mg/kg [1, 5] [%]	change in vivo at 50 mg/kg [1, 6] [%]	change in vivo at 50 mg/kg [1, 7] [%]	change in vivo at 50 mg/kg [1, 8] [%]	change in vivo at 50 mg/kg [1, 9] [%]	change in vivo at 50 mg/kg [1, 10] [%]	change in vivo at 50 mg/kg [1, 11] [%]	change in vivo at 50 mg/kg [1, 12] [%]	change in vivo at 50 mg/kg [1, 13] [%]	change in vivo at 50 mg/kg [1, 14] [%]	change in vivo at 50 mg/kg [1, 15] [%]	change in vivo at 50 mg/kg [1, 16] [%]	change in vivo at 50 mg/kg [1, 17] [%]	change in vivo at 50 mg/kg [1, 18] [%]	change in vivo at 50 mg/kg [1, 19] [%]	change in vivo at 50 mg/kg [1, 20] [%]	further results
O=c1oc2ccccc2c(O)c1C1COCCN1O (stereo not drawn) [(10), 4-hydroxy-3-(4-hydroxymorpholin-3-yl)-2H-chromen-2-one]	> 0.1	~85	-65.2	-115	-117	-87.2	-128	-113	-45.3	-18.9	-73.9	-34.1	-103	-14.4	-84.6	-43.4	-32.6	2.1	-86.2	toxic effect (female CD-1 mice): no toxic effect; inhibition in vivo at 50 mg/kg ([1]; ip, with respect to the vehicle): ≥ 50%; mean % effect relative to doxorubicin alone, all parameters (Vehicle) ([1]; oxidized mice, 50 mg/kg IP x3 days + doxorubicin, computed as a function of the vehicle): -48.0%
